# Molecular target: T1, F508del CFTR (Homo sapiens, UniProt P13569, DEL508-508)
# T1 construct: Primary CF airway epithelial cells were obtained from the UNC Cystic Fibrosis Tissue Procurement and Cell Culture Core; host or cells: primary CF airway epithelial cells
# Experiment: Equivalent current assay in primary CF airway epithelial cells (Corrector Activity, NAUC normalized to 3 μM VX809)
# Format: cell-based
# Settings: NAUC as % of positive control (VX-809)
# Outline: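 Readout is NAUC: current area from forskolin/potentiator addition until CFTR-172, minus vehicle, relative to 3 μM VX809 (=1.0). Cells were primary CF epithelia at air-liquid interface ≥4 weeks, given basolateral compound for 24 h at 37° C; median of n≥4 replicates, sigmoid fit with nH fixed at 1.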
# T1 sequence (P13569 with tags, fused parts or gaps DEL508-508): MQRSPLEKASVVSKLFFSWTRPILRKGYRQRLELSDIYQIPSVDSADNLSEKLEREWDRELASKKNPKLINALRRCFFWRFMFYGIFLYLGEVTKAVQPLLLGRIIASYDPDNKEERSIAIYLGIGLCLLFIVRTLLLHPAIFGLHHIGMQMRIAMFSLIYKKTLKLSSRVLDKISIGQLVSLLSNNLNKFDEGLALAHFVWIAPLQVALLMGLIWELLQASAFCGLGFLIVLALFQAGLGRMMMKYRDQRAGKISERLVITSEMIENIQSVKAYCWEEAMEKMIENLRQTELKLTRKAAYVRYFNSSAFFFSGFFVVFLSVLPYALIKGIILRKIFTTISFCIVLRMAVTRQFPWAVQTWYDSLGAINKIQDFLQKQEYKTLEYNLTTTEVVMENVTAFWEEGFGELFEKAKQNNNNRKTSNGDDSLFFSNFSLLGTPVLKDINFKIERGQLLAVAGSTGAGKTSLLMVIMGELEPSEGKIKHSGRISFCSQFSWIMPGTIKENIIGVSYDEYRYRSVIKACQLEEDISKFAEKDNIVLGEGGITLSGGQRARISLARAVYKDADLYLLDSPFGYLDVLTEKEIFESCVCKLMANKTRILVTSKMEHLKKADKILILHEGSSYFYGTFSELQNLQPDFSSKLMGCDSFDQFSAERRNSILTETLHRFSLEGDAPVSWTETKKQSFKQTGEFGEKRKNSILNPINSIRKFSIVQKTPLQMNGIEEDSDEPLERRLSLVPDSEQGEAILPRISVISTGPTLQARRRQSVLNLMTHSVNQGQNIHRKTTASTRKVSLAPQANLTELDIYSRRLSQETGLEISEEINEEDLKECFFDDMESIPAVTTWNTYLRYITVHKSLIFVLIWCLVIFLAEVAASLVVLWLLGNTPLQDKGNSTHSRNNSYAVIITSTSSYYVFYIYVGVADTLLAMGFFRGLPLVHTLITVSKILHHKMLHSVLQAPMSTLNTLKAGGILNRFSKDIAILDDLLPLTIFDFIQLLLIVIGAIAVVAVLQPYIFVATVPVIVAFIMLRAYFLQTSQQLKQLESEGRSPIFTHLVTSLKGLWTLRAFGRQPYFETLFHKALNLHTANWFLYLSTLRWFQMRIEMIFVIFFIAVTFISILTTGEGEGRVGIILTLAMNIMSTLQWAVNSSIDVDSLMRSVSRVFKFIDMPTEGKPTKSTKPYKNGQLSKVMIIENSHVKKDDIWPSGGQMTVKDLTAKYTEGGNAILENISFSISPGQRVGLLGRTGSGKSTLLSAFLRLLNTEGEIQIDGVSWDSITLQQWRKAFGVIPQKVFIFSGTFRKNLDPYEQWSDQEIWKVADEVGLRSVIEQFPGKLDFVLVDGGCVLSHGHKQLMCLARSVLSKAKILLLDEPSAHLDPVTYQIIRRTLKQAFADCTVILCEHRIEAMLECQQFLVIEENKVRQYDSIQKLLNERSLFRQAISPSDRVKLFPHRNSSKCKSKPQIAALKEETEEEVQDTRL
row,SMILES,Corr Activity (NAUC)
1,CCN(C(=O)Cn1nc(-c2ccc(C#N)c(C(F)(F)F)c2)c2[nH]cnc2c1=O)c1ccc2c(c1)OC(F)(F)O2 [Example 351],+ (NAUC<40% of positive control)
2,CCN(C(=O)Cn1nc(-c2cccc(C#N)c2)c2oc(C(=O)NC3(C(F)(F)F)CC3)cc2c1=O)c1ccc2c(c1)OC(F)(F)O2 [Example 153],+++ (NAUC>70% of positive control)
3,CN(C(=O)Cn1nc(-c2cccc(Cl)c2)c2cn[nH]c2c1=O)c1ccc2c(c1)OC(F)(F)O2 [Example 498],+ (NAUC<40% of positive control)
4,CCN(C(=O)Cn1nc(-c2cc(Cl)cc(Cl)c2)c2oc(C3CC3)cc2c1=O)c1ccc2c(c1)OC(F)(F)O2 [Example 221],+++ (NAUC>70% of positive control)
5,CCN(C(=O)Cn1nc(-c2cc(C#N)cc(OC)c2)c2[nH]cnc2c1=O)c1ccc2c(c1)OC(F)(F)O2 [Example 286],+++ (NAUC>70% of positive control)
6,COc1cc(C#N)cc(-c2nn(CC(=O)N3CCCc4c3ccc3c4OC(F)(F)O3)c(=O)c3ccoc23)c1 [Example 105],+++ (NAUC>70% of positive control)
7,"CC(O)c1cc2c(=O)n(CC(=O)N(C)c3ccc4c(c3)OC(F)(F)O4)nc(-c3cccc(Cl)c3)c2o1 (stereo not shown) [Example 183, 2-(7-(3-chlorophenyl)-2-(1-hydroxyethyl)-4-oxofuro[2,3-d]pyridazin-5(4H)-yl)-N-(2,2-difluorobenzo[d][1,3]dioxol-5-yl)-N-methylacetamide]",+++ (NAUC>70% of positive control)
8,Cc1nc2ccc(N(C)C(=O)Cn3nc(-c4cccc(C#N)c4)c4oc5ccccc5c4c3=O)cc2o1 [Example 158],+++ (NAUC>70% of positive control)
9,CCOC(=O)c1ccc(-c2nn(CC(=O)N(CC)c3ccc4c(c3)OC(F)(F)O4)c(=O)c3ccoc23)cc1C#N [Example 96],+++ (NAUC>70% of positive control)
10,CCN(C(=O)Cn1nc(-c2ccc(OC(F)(F)F)c(C#N)c2)c2[nH]cnc2c1=O)c1ccc2c(c1)OC(F)(F)O2 [Example 365],+++ (NAUC>70% of positive control)
11,CCN(C(=O)Cn1nc(-c2ccc3c(c2)OC(F)(F)O3)c2[nH]cnc2c1=O)c1ccc2c(c1)OC(F)(F)O2 [Example 311],+ (NAUC<40% of positive control)
12,CN(C(=O)Cn1nc(-c2cc(Cl)cc(Cl)c2)c2occc2c1=O)c1ccc2c(c1)OC(F)(F)O2 [Example 42],+++ (NAUC>70% of positive control)
13,CCN(C(=O)Cn1nc(-c2cc(Cl)cc(C#N)c2)c2oc(C(F)F)cc2c1=O)c1cc2c(cc1C)OC(F)(F)O2 [Example 194],+++ (NAUC>70% of positive control)
14,CCN(C(=O)Cn1nc(-c2cc(Cl)cc(C#N)c2)c2occc2c1=O)c1ccc2c(c1C)OC(F)(F)O2 [Example 172],+++ (NAUC>70% of positive control)
15,CCN(C(=O)Cn1nc(-c2cc(F)cc(CC#N)c2)c2[nH]cnc2c1=O)c1ccc2c(c1)OC(F)(F)O2 [Example 252],++ (NAUC 70-40% of positive control)
16,CCN(C(=O)Cn1nc(-c2ccc(CS(C)(=O)=O)c(Cl)c2)c2[nH]cnc2c1=O)c1ccc2c(c1)OC(F)(F)O2 [Example 363],+ (NAUC<40% of positive control)
17,CCN(C(=O)Cn1nc(-c2cc(C#N)cc(C(F)(F)F)c2)c2occc2c1=O)c1ccc2c(c1)OC(F)(F)O2 [Example 97],+ (NAUC<40% of positive control)
18,CCN(C(=O)Cn1nc(-c2cccc(C#N)c2)c2oc(CN3CCCCC3)cc2c1=O)c1ccc2c(c1)OC(F)(F)O2 [Example 201],+++ (NAUC>70% of positive control)
19,COc1cc(F)cc(-c2nn(CC(=O)N(c3ccc4c(c3)OC(F)(F)O4)C3CC3)c(=O)c3nc[nH]c23)c1 [Example 383],++ (NAUC 70-40% of positive control)
20,O=C(Cn1nc(-c2cc(F)cc(OCC(F)(F)F)c2)c2[nH]cnc2c1=O)N(c1ccc2c(c1)OC(F)(F)O2)C1CC1 [Example 393],++ (NAUC 70-40% of positive control)
21,CCc1c(N(CC)C(=O)Cn2nc(-c3cccc(C#N)c3)c3occc3c2=O)ccc2c1OC(F)(F)O2 [Example 55],+++ (NAUC>70% of positive control)
22,"CN(C(=O)Cn1nc(-c2cc(C#N)cc(C(=O)O)c2)c2occc2c1=O)c1ccc2c(c1)OC(F)(F)O2 [Example 213, 3-cyano-5-(5-(2-((2,2-difluorobenzo[d][1,3]dioxol-5-yl)(methyl)amino)-2-oxoethyl)-4-oxo-4,5-dihydrofuro[2,3-d]pyridazin-7-yl)benzoic acid]",+ (NAUC<40% of positive control)
23,CCN(C(=O)Cn1nc(-c2cc(C)cc(C#N)c2)c2oc(C(=O)NC(C)(C)C)cc2c1=O)c1ccc2c(c1)OC(F)(F)O2 [Example 131],+++ (NAUC>70% of positive control)
24,CCN(C(=O)Cn1nc(-c2cccc(OC(F)(F)F)c2)c2occc2c1=O)c1ccc2c(c1)OC(F)(F)O2 [Example 91],+++ (NAUC>70% of positive control)
25,CCN(C(=O)Cn1nc(-c2cc(Cl)cc(C#N)c2)c2oc(C(F)F)cc2c1=O)c1ccc2c(c1)OC(F)(F)O2 [Example 192],+++ (NAUC>70% of positive control)

row,SMILES,Corr Activity (NAUC)
1,N#Cc1cc(-c2nn(CC(=O)N(c3ccc4c(c3)OC(F)(F)O4)C3CC3)c(=O)c3nc[nH]c23)ccc1N1CCCCC1 [Example 491],++ (NAUC 70-40% of positive control)
2,Cc1cc2c(cc1N(C)C(=O)Cn1nc(-c3cc(Cl)cc(C#N)c3)c3oc(C(=O)NC(C)(C)C)cc3c1=O)OC(F)(F)O2 [Example 138],+++ (NAUC>70% of positive control)
3,CCN(C(=O)Cn1nc(-c2cc(Cl)cc(C(F)(F)F)c2)c2[nH]cnc2c1=O)c1ccc2c(c1)OC(F)(F)O2 [Example 278],+++ (NAUC>70% of positive control)
4,CCN(C(=O)Cn1nc(-c2ccc(OC(C)C)c(Cl)c2)c2[nH]cnc2c1=O)c1ccc2c(c1)OC(F)(F)O2 [Example 326],+++ (NAUC>70% of positive control)
5,Cc1cc(Cl)cc(-c2nn(CC(=O)N(c3ccc4c(c3)OC(F)(F)O4)C3CC3)c(=O)c3nc[nH]c23)c1 [Example 392],+++ (NAUC>70% of positive control)
6,CCN(C(=O)Cn1nc(-c2cc(Cl)cc(OC)c2)c2oc(C3CC3)cc2c1=O)c1ccc2c(c1)OC(F)(F)O2 [Example 227],+++ (NAUC>70% of positive control)
7,N#Cc1cccc(-c2nn(CC(=O)N(c3ccc4c(c3)OC(F)(F)O4)C3CCOC3)c(=O)c3ccoc23)c1 (stereo not shown) [Example 39],+++ (NAUC>70% of positive control)
8,O=C(Cn1nc(-c2cc(Cl)cc(C(F)(F)F)c2)c2[nH]cnc2c1=O)N(c1ccc2c(c1)OC(F)(F)O2)C1CC1 [Example 401],++ (NAUC 70-40% of positive control)
9,CCN(C(=O)Cn1nc(-c2cccc(C#N)c2)c2oc(C3CC3)cc2c1=O)c1ccc2c(c1)OC(F)(F)O2 [Example 231],+++ (NAUC>70% of positive control)
10,CN(C(=O)Cn1nc(-c2cc(Cl)cc(C#N)c2)c2[nH]cnc2c1=O)c1ccc2c(c1)OC(F)(F)O2 [Example 243],+++ (NAUC>70% of positive control)
11,N#Cc1cc(-c2nn(CC(=O)N(c3ccc4c(c3)OC(F)(F)O4)C3CC3)c(=O)c3nc[nH]c23)ccc1OC(F)(F)F [Example 483],++ (NAUC 70-40% of positive control)
12,CCN(C(=O)Cn1nc(-c2ccc3c(cnn3C(C)C)c2)c2[nH]cnc2c1=O)c1ccc2c(c1)OC(F)(F)O2 [Example 310],+ (NAUC<40% of positive control)
13,CCN(C(=O)Cn1nc(-c2ccc(Cl)c(C#N)c2)c2[nH]cnc2c1=O)c1ccc2c(c1)OC(F)(F)O2 [Example 325],+++ (NAUC>70% of positive control)
14,CCN(C(=O)Cn1nc(-c2cc(F)cc(Cl)c2)c2[nH]cnc2c1=O)c1ccc2c(c1)OC(F)(F)O2 [Example 255],+++ (NAUC>70% of positive control)
15,O=C(Cn1nc(-c2ccc3c(c2)ncn3-c2ccccc2)c2[nH]cnc2c1=O)N(c1ccc2c(c1)OC(F)(F)O2)C1CC1 [Example 433],+ (NAUC<40% of positive control)
16,CCN(C(=O)Cn1nc(-c2cccc(Cl)c2)c2[nH]cnc2c1=O)c1ccc2c(c1)OC(F)(F)O2 [Example 26],+++ (NAUC>70% of positive control)
17,Cc1c(N(C)C(=O)Cn2nc(-c3cccc(C#N)c3)c3occc3c2=O)ccc2c1OC(F)(F)O2 [Example 53],+++ (NAUC>70% of positive control)
18,CCN(C(=O)Cn1nc(-c2cc(SC)cc(C(F)(F)F)c2)c2[nH]cnc2c1=O)c1ccc2c(c1)OC(F)(F)O2 [Example 271],+ (NAUC<40% of positive control)
19,COc1cc(Cl)cc(-c2nn(CC(=O)N(c3ccc4c(c3)OC(F)(F)O4)C3CC3)c(=O)c3nc[nH]c23)c1 [Example 379],++ (NAUC 70-40% of positive control)
20,CCN(C(=O)Cn1nc(-c2cc(F)cc(OC)c2)c2oc(C3CCC3)cc2c1=O)c1ccc2c(c1)OC(F)(F)O2 [Example 241],+++ (NAUC>70% of positive control)
21,N#Cc1cc(-c2nn(CC(=O)N(c3ccc4c(c3)OC(F)(F)O4)C3CC3)c(=O)c3nc[nH]c23)ccc1N1CCCC1 [Example 470],+++ (NAUC>70% of positive control)
22,COc1cc(OC(F)(F)F)cc(-c2nn(CC(=O)N(c3ccc4c(c3)OC(F)(F)O4)C3CC3)c(=O)c3nc[nH]c23)c1 [Example 397],+ (NAUC<40% of positive control)
23,CCN(C(=O)Cn1nc(-c2cccc(C#N)c2)c2oc(C(=O)NC(C)(C)C)cc2c1=O)c1ccc2c(c1F)OC(F)(F)O2 [Example 147],+++ (NAUC>70% of positive control)
24,O=C(Cn1nc(-c2ccc3c(ccn3S(=O)(=O)c3ccccc3)c2)c2[nH]cnc2c1=O)N(c1ccc2c(c1)OC(F)(F)O2)C1CC1 [Example 423],+ (NAUC<40% of positive control)
